From PMC7999182, “Interaction of Remdesivir with Clinically Relevant Hepatic Drug Uptake Transporters” (Pharmaceutics, 2021)

Assays:
[1] = molecular target: T1, OCT1 (Homo sapiens, UniProt O15245); assay: Inhibition of OCT1-mediated metformin uptake; type: cell-based
T1 construct: expressed in transfected cells
T1 sequence (O15245 1-554): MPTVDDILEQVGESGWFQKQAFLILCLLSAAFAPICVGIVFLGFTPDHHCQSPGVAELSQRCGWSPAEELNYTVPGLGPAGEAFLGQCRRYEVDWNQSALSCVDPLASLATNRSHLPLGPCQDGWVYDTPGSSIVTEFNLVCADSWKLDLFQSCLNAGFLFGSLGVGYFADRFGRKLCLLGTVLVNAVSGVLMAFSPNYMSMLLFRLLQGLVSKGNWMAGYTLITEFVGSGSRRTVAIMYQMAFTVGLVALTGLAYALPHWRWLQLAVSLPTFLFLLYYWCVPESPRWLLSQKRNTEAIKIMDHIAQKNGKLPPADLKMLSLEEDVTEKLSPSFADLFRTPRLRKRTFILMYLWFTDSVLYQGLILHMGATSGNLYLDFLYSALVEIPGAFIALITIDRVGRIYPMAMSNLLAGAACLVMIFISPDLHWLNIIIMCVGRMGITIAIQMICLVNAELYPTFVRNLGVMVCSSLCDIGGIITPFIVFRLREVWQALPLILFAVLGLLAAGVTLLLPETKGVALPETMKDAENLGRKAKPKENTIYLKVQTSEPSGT
Text: Generation, cultivation and characterization of human embryonic kidney (HEK) cells stably expressing OATP1B1 refseq (=OATP1B1*1a), OATP1B1*1b, OATP1B1*5 and OATP1B1*15 [18], OATP1B3 [19], OATP2B1 [13] and OCT1 [20] have been described previously. OATP1B1 cells were cultivated in minimal essential medium (Life Technologies, Paisley, UK) and OATP1B3, OATP2B1 and OCT1 cells were cultivated in Dulbecco’s modified Eagle medium (Sigma, Darmstadt, Germany). Cultivation media were supplemented with 10% fetal calf serum, 100 U/mL penicillin and 100 µg/mL streptomycin. Cells were grown at 37 °C and 5% CO2. Functionality of the cells was confirmed by measuring uptake of prototypic substrates (see Section 2.3 and supplementary material).
Prototypic substrate uptake was performed as described previously. For this, uptake solutions contained the respective substrate with tracer amounts of radiolabeled substrate. In case of inhibition studies, uptake solutions additionally contained different concentrations of remdesivir. […] Cells were then lysed with 0.2% sodium dodecyl sulfate and intracellular radioactivity was measured by liquid scintillation counting (Tricarb2800, PerkinElmer Life Sciences GmbH, Rodgau, Germany or Hidex 300SL TDCR liquid scintillation counter, Turku, Finland). […]

[2] = test system: OATP2B1; design: method as in PMID 33435273; details: pyranine transport; cited from earlier work

In the case of CCC(CC)COC(=O)[C@H](C)N[P@](=O)(OC[C@H]1O[C@@](C#N)(c2ccc3c(N)ncnn23)[C@H](O)[C@@H]1O)Oc1ccccc1 [Remdesivir], the “Effect on prototypic substrate uptake” value ([1]; 5 µM metformin, 5 min uptake, different remdesivir concentrations) is given as “significant concentration-dependent inhibitory effect”, the “Transporter inhibition at 10 µM” value ([1]; 10 µM remdesivir, metformin as substrate) is given as “inhibition” and the IC50 [2] is given as 3.8 µM.
